Laboratory results as given in PMC4984408 (ChemistryOpen, 2016).
Like-named read-outs stand apart in the source and are kept apart here.

Columns and labels:
[1] = tested on: dengue viruses (DENV, serotype D2); type: cell-based, dengue virus
[2] = tested on: yellow fever (YFV, 17 D strain of ASIBI); type: cell-based, yellow fever virus

SMILES	D2 inhibition [% Cells alive] ([1]; 5 μM)	D2 inhibition [% Cells alive] ([1]; 10 μM)	D2 inhibition [% Cells alive] ([1]; 20 μM)	CC50 (Vero cells) [µM]	YFV inhibition [% Cells alive] ([2]; 5 μM)	YFV inhibition [% Cells alive] ([2]; 10 μM)	YFV inhibition [% Cells alive] ([2]; 20 μM)	cytotoxicity (in words) (Vero cells)	anti-YFV activity (in words) [2]	anti-DENV activity (in words) [1]
COc1ccc(C(OC[C@H]2O[C@@H](n3ccc(=O)[nH]c3=O)[C@H](O)[C@@H]2O)(c2ccccc2)c2ccc(OC)cc2)cc1 [9 H, 5′‐O‐Dimethoxytrityluridine]	0	0	0	> 20	–	–	–	–	–	–
COc1ccc(C(OC[C@H]2O[C@@H](n3cc(F)c(=O)[nH]c3=O)[C@H](O)[C@@H]2O)(c2ccccc2)c2ccc(OC)cc2)cc1 [6 H, 5′‐O‐dimethoxytrityl‐5‐fluorouridine]	0	0	0	> 20	9.22±0.46	30.89±1.85	–	–	–	–
Cc1cn([C@H]2C[C@H](OC(c3ccccc3)(c3ccccc3)c3ccccc3)[C@@H](COC(c3ccccc3)(c3ccccc3)c3ccccc3)O2)c(=O)[nH]c1=O [21 B, 5′,3′‐bis‐O‐trityl‐thymidine]	0	0	0	–	0	0	0.95±0.17	–	–	–
O=c1[nH]c(NC(c2ccccc2)(c2ccccc2)c2ccccc2)nc2c1ncn2CCC(COC(c1ccccc1)(c1ccccc1)c1ccccc1)COC(c1ccccc1)(c1ccccc1)c1ccccc1 [22 B‐NHTr, 2‐N,5′,3′‐O‐tri‐trityl penciclovir]	0	0	0	> 20	0	0	8.09±0.04	–	–	–
O[C@H]1[C@H](O)[C@@H](COC(c2ccccc2)(c2ccccc2)c2ccccc2)O[C@H]1n1cnc2c(NC(c3ccccc3)(c3ccccc3)c3ccccc3)nc(F)nc21 [20 D‐NHTr, 5′‐O,N‐trityl‐fludarabine]	–	–	–	> 20	0	0.28	0.84	no cytotoxicity	devoid of any significant anti‐YFV inhibitory effect	–
COc1ccc(C(OCC2OC(n3ccc(NC(C)=O)nc3=O)CS2)(c2ccccc2)c2ccc(OC)cc2)cc1 (stereo not shown) [12 H, 5′‐O‐Dimetoxytrityl‐N‐acetyl‐lamivudine]	0	0	0	> 20	0	0	70.45±18.31	–	–	–
O=c1[nH]c(=O)n([C@@H]2O[C@H](COC(c3ccccc3)(c3ccccc3)c3ccccc3)[C@@H](O)[C@H]2O)cc1F [6 D, 5′‐O‐trityl‐5‐fluorouridine]	0	0	0	–	0	0	–	–	–	no inhibitory properties
NC(=O)c1ncn([C@@H]2O[C@H](COC(c3ccccc3)(c3ccccc3)c3ccccc3)[C@@H](OC(c3ccccc3)(c3ccccc3)c3ccccc3)[C@H]2O)n1 [5 B, 5′,3′‐bis‐O‐tritylribavirin]	0	0	–	> 20	0	0	0	–	–	–
COc1ccc(C(OC[C@H]2O[C@@H](n3ccc(=O)[nH]c3=O)[C@H](F)[C@@H]2O)(c2ccccc2)c2ccc(OC)cc2)cc1 [16 H, 5′‐O‐dimethoxytrityl‐2′‐fluoro‐2′‐deoxyuridine]	0	0	0	> 20	0	0	–	–	–	–
O=c1ccn([C@@H]2O[C@H](COC(c3ccccc3)(c3ccccc3)c3ccccc3)[C@@H](O)[C@H]2F)c(=O)[nH]1 [16 D, 5′‐O‐trityl‐2′‐fluoro‐2′‐deoxyuridine]	0	0	–	–	0	0	0	–	–	–
COc1ccc(C(OC[C@H]2O[C@@H](n3cc(F)c(=O)[nH]c3=O)C[C@@H]2O)(c2ccccc2)c2ccc(OC)cc2)cc1 [15 H, 5′‐O‐dimethoxytrityl‐5‐fluoro‐2′‐deoxyuridine]	0	0	0	> 20	0	–	–	–	–	–
Cc1cn([C@H]2C[C@H](O)[C@@H](COC(c3ccccc3)(c3ccccc3)c3ccccc3)O2)c(=O)[nH]c1=O [Compound 1, 5′‐O‐trityl‐thymidine]	0	0	0	–	0	1.25±0.03	–	–	–	no inhibitory properties
Cc1cn([C@@H]2O[C@H](COC(c3ccccc3)(c3ccccc3)c3ccccc3)[C@@H](O)[C@H]2O)c(=O)[nH]c1=O [19 D, 5′‐O‐trityl‐5‐methyluridine]	0	0	0	–	0	0	–	–	–	no inhibitory properties
O=c1[nH]c(=O)n([C@H]2C[C@H](O)[C@@H](COC(c3ccccc3)(c3ccccc3)c3ccccc3)O2)cc1I [14 D, 5′‐O‐Trityl‐5‐iodo‐2′‐deoxyuridine]	0	0	2.47±0.06	–	0	0	0	–	–	–
